Assay results: PMC6452685, “Lysyl-tRNA synthetase as a drug target in malaria and cryptosporidiosis” (Proceedings of the National Academy of Sciences of the …, 2019)
Read-outs that look alike come from different tables or passages of the source.

Assays:
[1] = Hepatocyte stability, human; assay type: in vitro ADME
Method: SUPPLEMENTARY INFORMATION where V (ml/mg protein) is the incubation volume/mg protein added (0.5) and microsomal protein yield is taken as being 52.5 mg protein per g liver. Verapami l (0. 5 µ M ) w as us ed as a pos i t i v e cont rol to confirm ac ceptable assay performance. Ex peri ments were performed us i ng a s i ngl e ti me-cours e […]
4.5 He pat ocy t e s t abilit y
Cryopreserved hepatocytes were used to take non-CYP mediated Phase I and Phase II enzymes into […]
than those determined using li v e r mi crosomes or other subcellular liver fractions and could be mo re predi ct i v e of a met abol i c rat e det ermi ned in vivo.
Cryopreserved mouse (batch MC539) and huma n (batch HU E50H) hepatocytes were supplied by ThermoFi sher Sci enti fi c, Pai sl ey, UK and Xenotech, LLC, respectively. Cryopreserved hepatocytes were rapidly thawed in a pre-heat ed w at er bat h at 37 °C before ad di ng to 50 ml of pre-warmed CHRM medi a (ThermoFi sher Sci enti fi c, Paisley, UK) and mi xed gentl y. […] […] 5 mi l li on v i abl e cel l s /ml i n s uppl emented W ME. Onl y s us pens i ons whi ch ac hi ev ed >80% pos t-thaw viability were us ed i n ex peri ment s . […]
DMSO and 0.25 million cells/ml. […]

[2] = system: P. falciparum male/female gamete formation; assay: P. falciparum male/female gamete formation; assay type: cell-based; details: Plasmodium falciparum
Method: Thi s i s bas ed on methods previ ousl y reported (14). Mature P. falciparum stage V gametocytes (NF54)
were incubated with test compound for 24 h at 3 7°C i n 384-well plates containing complete culture
medi um (RPMI 1640, 25 mM HEPES, 2 g/l D-glucose, 2 g/l sodium bicarbonate, 50 mg/l
Gametogenesis was triggered by dis pens i ng 10 µl ookinete medium (RPMI 1640, 25 mM HEPES, 2 g/l
D-glucose, 2 g/l sodium bicarbonate, 50 mg/l hy pox ant hi ne, 100 µM xanthurenic acid) also
contai ni ng 2. 7 µg/ml anti-Pfs25-Cy3 into each well and cooling the plate on a metal block at 4 °C fo r
4 mi n. Fi fteen s l ater male gametogenesis was recorded by b ri ghtfi el d i magi ng usi ng ti m e s 6 object i v e
and then the pl ate stored at 2 6 °C for a fu rther 24 h to allow female gametes to develop. Female
gamete formation was assessed by fluorescence m icroscopy using x6 objective to identify anti-Pfs25-
gentian violet negative and positive controls.
3.1 3 Act iv it y a gains t Cry pt os pori diu m h omi nis (CALIBR)
Thi s i s bas ed on methods previ ousl y reported (10).

[3] = system: P. vivax liver schizonts/hypnozoites; assay: P. vivax liver schizonts/hypnozoites (prophylactic mode); assay type: cell-based; details: Plasmodium vivax
Method: Thi s i s bas ed on met hods prev i ous l y report ed (12 ). In bri ef, HepG 2-A1 6-CD81EGFP cel l s were cul tured at 3 7 °C i n 5% C O2 in DMEM me dia. For both P. berghei-Luc and HepG2 cytotoxi ci ty assays, 3x 10**3 of the HepG2-A16-CD81EGFP20 cells in 5 µl of assay medi um (DMEM wi thout Phenol Red (Li fe Techn ol ogi es, CA), 5% FBS, and 5x Pen Stre p Gl utami ne (Li fe Techn ol ogi es, CA)) at concentrati o n 6x 10**5 cel l s /ml were s eeded i n white s oli d bottom 153 6-well pl at es (cus t om G NF mol d ref# 7891 73-F, Grei ner Bi o-One), 2 0-26 h prior to sporozoites infection. […]
pri or t o i nfect i on 5 0 nl of comp ounds i n 1:3 s eri al di l ut i ons in DMSO (0. 5% fi nal DMSO concentrati on per w el l ) w ere t rans ferred w i t h an Acous ti c Trans fer Sy s t em (ATS) (Bi os ero) t o the cells. Atovaquone (5µ M) and pu romy ci n (1 0 µM) at a single concentration were used as pos i t i v e cont rol s for the Pbluc and He pG 2tox , res pecti v el y . 0. 5% DMSO was us ed as neg ati v e control for both as s ay s . […]
[…] Immediately after addition of the luminescence reagent, the luminescence was measured by the Env i s i on M ul t il abel Reader (Perk i nEl mer). […]
Thi s is a modification of the previously reported method (13). […]

[4] = system: P. falciparum; assay: In vivo antimalarial efficacy in P. falciparum-infected SCID mice engrafted with human erythrocytes; details: SCID mouse, orally once a day for 4 d
From the text: The l ev el of each comp ound i n mouse bl ood was determi ned by UPLC -MS/MS as previously re port e d (18). Pharmacokinetic parameters were derived from the blood c oncent ration time curve usi ng PKsol uti ons software v 2.0 (Summi t Research Servi ces, USA).
The mi ce were i ntrav enous l y i nfected with 2×107 P. fa l ci p a rum Pf3D700 87/ N9-infected erythrocytes (day 0). On day 3 after infection, mice (n=2) were rand oml y al l ocated to treatments that were admi nis tered once a day for 4 cons ecuti v e day s by oral g av ag e at 10 ml/k g.
The compo und c onc entrati on v ers us ti me data were anal yzed by non-compartmental anal ysi s (NCA) usi ng Phoeni xR Ve rsi on 6.3 (Pha rsi ght Corporati on, M ountai n Vi ew, CA, USA).
Femal e i mmunodefi ci ent NOD-sc i d I L-2Rγnull mi ce (NSG) (Charl es Ri v er, France) of 25-28 g r b ody w ei g ht w ere hou s ed i n The A rt of D i s cov ery ani mal faci li t y at BIC

[5] = target: T1, CYP3A4 (Homo sapiens, UniProt P08684); assay: Fluorescence-based CYP inhibition, CYP3A4; assay type: in vitro ADME
T1 construct: purchased Cypex, Dundee, UK; host or cells: bacterial membranes (bactosomes)
Method: 4.7 F lu or e s ce nce-based CYP I nhibition usin g recombinantly expressed CYP b actosomes Fl uorogeni c C YP i nhi bi t i on s t udi es w ere c ondu ct ed at 37 °C i n 96-well, flat-bot t om, cl ear p ol y s t y rene pl at es. I ncubat i on mi xt ures cont ai ni ng Eas y C YP bact os omes (1000 pmol /ml , 10 mg /ml C y pex TM, Dundee, UK), fl uorogeni c substrate (Cypex TM) and 50 mM potas s i um phosphat e buffer (p H 7. 4) w er e prepared at t he fol l ow i ng fi nal concent rat i ons : C YP1A2, 5 pmol /ml + 35 µ M et hox y res orufi n (ER) ; CYP2C9, 10 pm ol/ml + 30 µM 7-methoxy-4-(tri fl uo romethy l )-coumari n (MFC ); C YP 2C 19, 5 pm ol /ml + 25 µM 3-cy ano-7-eth oxycoumarin (CEC); C YP 2D 6, 10 pmol /ml + 6 µM 7-meth oxy-4-(ami nomethy l )- coumari n (MAMC ); C YP 3A4, 10 pmol /ml + 1 µM diethoxyfluorescein (DEF) and 10 pmol /ml + 15 µM 7-benz y l ox y qui nol i ne (BQ ). […] 0125 ( 1A2 and 2C 9 onl y ) o r 0. 025 mg /ml (al l ot her i s oforms ). […] Positive control inhibitor, miconazole, was prepared as a 500 µM s olution in DMSO and similarly diluted.
For eac h i sofo rm, 2 20 µl of i ncubati on mi x was added to each wel l of a 96-well, flat-bot t om, cl ear pol y s t y rene pl at e. Al i quot s (5 µl) of each compound 5 conce ntrati on was then mi x ed wi th 220 µl of the incubation mix and pre-incubated at 37 °C for 5 min (final test compound concentration range: […]

T1 sequence (P08684 whole entry): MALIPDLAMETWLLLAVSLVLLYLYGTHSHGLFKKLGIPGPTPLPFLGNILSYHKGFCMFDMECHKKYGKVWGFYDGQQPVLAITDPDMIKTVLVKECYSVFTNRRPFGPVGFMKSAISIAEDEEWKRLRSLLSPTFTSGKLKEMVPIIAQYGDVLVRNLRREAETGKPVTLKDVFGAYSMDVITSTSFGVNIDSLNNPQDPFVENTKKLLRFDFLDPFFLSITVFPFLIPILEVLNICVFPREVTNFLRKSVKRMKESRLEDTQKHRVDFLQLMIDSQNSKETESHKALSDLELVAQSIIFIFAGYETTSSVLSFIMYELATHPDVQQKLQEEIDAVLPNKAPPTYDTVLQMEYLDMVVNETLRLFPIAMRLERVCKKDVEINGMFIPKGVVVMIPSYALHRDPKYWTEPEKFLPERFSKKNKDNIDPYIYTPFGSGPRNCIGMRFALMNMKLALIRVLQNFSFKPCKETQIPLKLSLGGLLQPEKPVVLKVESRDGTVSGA

With O=C(NCC1(O)CCC(F)(F)CC1)c1cc(=O)c2cc(F)ccc2o1 [Compound 5] the “Hepatocyte stability CLint” value [1] was 0.5 (mouse), <0.5 (human) mL⋅min^−1⋅g^−1, the EC50 [2] was > 1 µM and the EC50 ([3]; hypnozoites, read-out: P. vivax hypnozoites EC50 (prophylactic mode)) was > 10 µM. The EC50 ([3]; liver schizonts, read-out: P. vivax liver schizonts EC50 (prophylactic mode)) was 0.95 µM, the “AUCED90, estimated daily exposure in blood reducing parasitemia by 90% at day 5” value [4] was 11,000 ng⋅h⋅ml^−1⋅d^−1 and the “ED90, daily oral dose reducing parasitemia by 90% at day 5” value [4] was 1.5 mg⋅kg^−1. For the same compound, the IC50 [5] was > 10 µM.
